Active and inactive are the calls of the source.
Key:
[1] = system: HeLa; test: HeLa cell cytotoxicity, dose response, cytotoxicity control for MITF activator project, CellTiter-Glo luminescence, cherry-pick samples (AID 540259); type: functional, cell-based; conditions: Homo sapiens
[2] = Shn3 3'UTR reporter inhibitors, dose response, cell-based, Clone20 osteoblasts, firefly luciferase, cherry-picked (AID 624132); type: functional;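 further: firefly luciferase luminescence from reporter carrying the Shn3 3'UTR in osteoblasts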
[3] = biological target: Protein Wnt-3a (Mus musculus, UniProt P27467); test: Wnt3a-driven reporter signaling inhibition, dose response, selectivity assay for Gli-SUFU antagonist project, Wnt-LIGHT cells, luminescence (AID 651570); type: functional; conditions: read-out: IC50_Mean;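 further: Wnt-LIGHT reporter cells stimulated with conditioned medium from Wnt3a-producing cells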
Protein Wnt-3a, sequence (P27467 whole entry): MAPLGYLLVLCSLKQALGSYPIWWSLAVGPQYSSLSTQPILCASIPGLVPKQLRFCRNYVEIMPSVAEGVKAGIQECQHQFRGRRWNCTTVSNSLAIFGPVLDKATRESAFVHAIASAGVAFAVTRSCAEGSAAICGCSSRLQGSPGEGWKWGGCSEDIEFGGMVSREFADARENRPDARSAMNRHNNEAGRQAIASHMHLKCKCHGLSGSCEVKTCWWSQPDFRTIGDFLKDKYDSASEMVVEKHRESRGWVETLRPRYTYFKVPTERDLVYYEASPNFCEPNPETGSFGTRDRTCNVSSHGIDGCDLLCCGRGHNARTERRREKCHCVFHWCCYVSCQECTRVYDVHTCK

[4] = control 3'UTR Renilla luciferase suppression, dose response, counter-screen for Shn3 inhibitor project, cell-based, Clone20-Shn3RL, cherry-picked (AID 624133); type: functional
[5] = HepG2 cell cytotoxicity, dose response, cytotoxicity control for Shn3 inhibitor project, CellTiter-Glo, cherry-picked (AID 624134); type: functional, cell-based
[6] = biological target: Prothrombin (Homo sapiens, UniProt P00734); test: Thrombin 1536 HTS Dose Response Confirmation. [Related pubchem assays: 1046 (Thrombin 1536 HTS; hits were confirmed in this assay)]; type: functional
[7] = biological target: T1, Polyadenylate-binding protein 1 (Homo sapiens, UniProt P11940); test: PABP1 MLLE–PAM2 binding inhibitor potency, dose response, biochemical, fluorescence polarization, FITC-PAM2 peptide (AID 602259); type: functional; conditions: read-out: IC50_Mean
T1 sequence (P11940 whole entry): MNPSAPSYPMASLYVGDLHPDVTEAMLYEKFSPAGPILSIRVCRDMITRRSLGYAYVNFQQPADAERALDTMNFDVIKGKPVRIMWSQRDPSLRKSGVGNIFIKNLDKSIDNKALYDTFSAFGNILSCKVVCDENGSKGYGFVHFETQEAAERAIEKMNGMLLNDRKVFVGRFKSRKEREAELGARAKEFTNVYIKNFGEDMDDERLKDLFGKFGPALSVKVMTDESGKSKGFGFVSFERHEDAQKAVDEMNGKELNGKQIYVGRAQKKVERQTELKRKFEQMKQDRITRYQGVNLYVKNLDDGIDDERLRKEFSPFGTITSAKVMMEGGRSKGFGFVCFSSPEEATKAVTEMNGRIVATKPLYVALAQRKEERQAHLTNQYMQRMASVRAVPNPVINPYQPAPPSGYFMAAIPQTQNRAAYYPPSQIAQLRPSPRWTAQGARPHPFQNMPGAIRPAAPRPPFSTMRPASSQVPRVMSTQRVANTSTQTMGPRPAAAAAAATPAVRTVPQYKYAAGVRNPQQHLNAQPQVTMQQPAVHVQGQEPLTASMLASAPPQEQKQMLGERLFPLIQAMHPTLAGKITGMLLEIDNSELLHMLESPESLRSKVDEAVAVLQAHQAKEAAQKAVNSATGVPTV

[8] = biological target: T1, Polyadenylate-binding protein 1; test: PABP1 MLLE–PAM2 interaction inhibitors, dose response, miRNA deadenylation inhibitor project, biochemical, fluorescence polarization, Cy5-PAM2 peptide, secondary (AID 602260); type: functional; conditions: read-out: IC50_Mean
[9] = biological target: T2, Coagulation factor XII (Homo sapiens, UniProt P00748); type: functional;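 further: activated factor XIIa alpha cleaving a fluorogenic AMC peptide substrate; inhibitor potency from loss of enzyme activity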
T2 sequence (P00748 whole entry): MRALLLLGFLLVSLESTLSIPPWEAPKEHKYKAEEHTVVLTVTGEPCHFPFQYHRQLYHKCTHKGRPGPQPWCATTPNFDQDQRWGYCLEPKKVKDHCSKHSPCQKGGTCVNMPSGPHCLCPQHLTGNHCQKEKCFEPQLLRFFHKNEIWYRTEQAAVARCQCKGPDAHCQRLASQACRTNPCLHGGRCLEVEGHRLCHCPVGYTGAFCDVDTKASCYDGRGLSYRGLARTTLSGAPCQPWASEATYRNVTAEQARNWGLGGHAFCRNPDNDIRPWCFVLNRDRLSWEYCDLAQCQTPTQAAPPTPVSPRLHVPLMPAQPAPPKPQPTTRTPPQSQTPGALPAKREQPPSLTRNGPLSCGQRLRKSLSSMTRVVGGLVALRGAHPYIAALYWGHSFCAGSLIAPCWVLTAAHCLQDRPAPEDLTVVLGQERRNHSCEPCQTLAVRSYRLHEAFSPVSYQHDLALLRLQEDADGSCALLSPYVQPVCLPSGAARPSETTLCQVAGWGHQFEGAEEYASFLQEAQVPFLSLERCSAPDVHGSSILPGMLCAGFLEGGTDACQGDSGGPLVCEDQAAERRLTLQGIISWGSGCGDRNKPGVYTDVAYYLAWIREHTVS

[10] = biological target: DNA dC->dU-editing enzyme APOBEC-3G (Homo sapiens, UniProt Q9HC16); test: Dose Response confirmation of small molecule APOBEC3G DNA Deaminase Inhibitors via a fluorescence-based single-stranded DNA deaminase assay. [Related pubchem assays (depositor defined):AID493012, AID493028]; type: functional
DNA dC->dU-editing enzyme APOBEC-3G, sequence (Q9HC16 whole entry): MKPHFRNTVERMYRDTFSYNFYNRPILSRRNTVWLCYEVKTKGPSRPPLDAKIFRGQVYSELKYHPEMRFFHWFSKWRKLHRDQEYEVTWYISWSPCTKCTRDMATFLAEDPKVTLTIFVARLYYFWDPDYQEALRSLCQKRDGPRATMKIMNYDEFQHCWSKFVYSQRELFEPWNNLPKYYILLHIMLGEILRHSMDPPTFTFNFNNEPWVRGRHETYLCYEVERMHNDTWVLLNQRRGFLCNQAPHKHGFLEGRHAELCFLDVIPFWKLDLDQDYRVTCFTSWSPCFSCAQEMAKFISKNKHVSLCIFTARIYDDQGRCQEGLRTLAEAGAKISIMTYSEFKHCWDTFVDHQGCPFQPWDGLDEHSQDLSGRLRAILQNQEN

[11] = biological target: T3, Adenosylmethionine-8-amino-7-oxononanoate aminotransferase (Mycobacterium tuberculosis, UniProt P9WQ81); test: Mycobacterium tuberculosis BioA enzyme inhibitor Measured in Biochemical System Using Plate Reader - 2163-02_Inhibitor_Dose_CherryPick_Activity.; type: functional, Mycobacterium tuberculosis UT205
T3 sequence (P9WQ81 whole entry): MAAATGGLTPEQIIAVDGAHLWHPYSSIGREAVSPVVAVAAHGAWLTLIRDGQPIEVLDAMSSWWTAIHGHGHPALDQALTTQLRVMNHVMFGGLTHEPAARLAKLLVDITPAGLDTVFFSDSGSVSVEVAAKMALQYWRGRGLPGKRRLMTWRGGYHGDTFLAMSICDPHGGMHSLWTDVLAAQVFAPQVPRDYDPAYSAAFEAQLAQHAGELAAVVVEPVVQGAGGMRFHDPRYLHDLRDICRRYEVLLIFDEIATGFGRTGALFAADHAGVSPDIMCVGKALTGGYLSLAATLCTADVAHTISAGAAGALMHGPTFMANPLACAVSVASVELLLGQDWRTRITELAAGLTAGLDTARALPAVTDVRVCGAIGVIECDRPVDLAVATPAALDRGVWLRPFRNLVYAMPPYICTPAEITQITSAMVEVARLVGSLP

[12] = biological target: Induced myeloid leukemia cell differentiation protein Mcl-1 (Homo sapiens, UniProt Q07820); type: functional
Induced myeloid leukemia cell differentiation protein Mcl-1, sequence (Q07820 whole entry): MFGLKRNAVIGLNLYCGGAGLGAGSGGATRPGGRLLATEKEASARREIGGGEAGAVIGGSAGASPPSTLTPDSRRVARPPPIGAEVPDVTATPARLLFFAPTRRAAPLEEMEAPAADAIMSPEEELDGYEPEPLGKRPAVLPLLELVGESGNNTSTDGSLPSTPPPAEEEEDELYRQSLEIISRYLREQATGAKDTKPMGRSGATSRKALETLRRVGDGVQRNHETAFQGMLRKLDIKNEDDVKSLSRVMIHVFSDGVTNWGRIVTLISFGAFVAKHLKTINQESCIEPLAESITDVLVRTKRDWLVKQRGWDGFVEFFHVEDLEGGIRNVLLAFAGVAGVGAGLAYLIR

[13] = biological target: Genome polyprotein (dengue virus type 2, UniProt P29990); test: Dengue-2 NS5 methyltransferase inhibitors, primary screen, biochemical, confirmation dose response (AID 588689); type: functional
Genome polyprotein, sequence (P29990 2492-3391 limits assumed): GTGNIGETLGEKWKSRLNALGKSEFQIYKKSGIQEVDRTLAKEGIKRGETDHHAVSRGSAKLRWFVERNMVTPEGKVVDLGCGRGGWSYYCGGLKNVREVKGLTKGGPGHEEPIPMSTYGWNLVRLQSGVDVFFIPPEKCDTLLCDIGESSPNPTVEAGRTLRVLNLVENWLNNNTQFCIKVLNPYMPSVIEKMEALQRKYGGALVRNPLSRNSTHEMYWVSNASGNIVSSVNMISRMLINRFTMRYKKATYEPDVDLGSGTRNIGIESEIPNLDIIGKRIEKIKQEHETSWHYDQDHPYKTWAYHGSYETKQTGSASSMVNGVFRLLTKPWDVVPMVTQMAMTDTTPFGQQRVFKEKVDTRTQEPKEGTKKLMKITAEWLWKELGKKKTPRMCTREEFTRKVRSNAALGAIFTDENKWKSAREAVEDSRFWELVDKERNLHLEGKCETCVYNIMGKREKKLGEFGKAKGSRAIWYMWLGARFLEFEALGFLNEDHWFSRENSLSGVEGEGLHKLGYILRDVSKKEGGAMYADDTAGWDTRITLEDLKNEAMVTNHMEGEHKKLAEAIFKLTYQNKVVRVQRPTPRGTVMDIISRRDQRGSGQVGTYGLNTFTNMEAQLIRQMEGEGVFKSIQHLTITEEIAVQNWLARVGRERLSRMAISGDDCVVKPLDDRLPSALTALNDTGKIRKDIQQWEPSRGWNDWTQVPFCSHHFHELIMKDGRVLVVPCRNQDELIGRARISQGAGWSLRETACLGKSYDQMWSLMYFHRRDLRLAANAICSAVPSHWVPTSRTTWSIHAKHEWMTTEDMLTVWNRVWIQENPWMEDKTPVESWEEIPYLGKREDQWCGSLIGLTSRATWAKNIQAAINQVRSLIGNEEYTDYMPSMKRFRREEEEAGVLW

[14] = biological target: T4, Leucine aminopeptidase (Plasmodium falciparum 3D7, UniProt Q8IL11); test: P. falciparum M17LAP inhibitors, primary screen, biochemical, fluorogenic H-Leu-NHMec substrate, 1536-well (AID 1619); type: functional
T4 sequence (Q8IL11 whole entry): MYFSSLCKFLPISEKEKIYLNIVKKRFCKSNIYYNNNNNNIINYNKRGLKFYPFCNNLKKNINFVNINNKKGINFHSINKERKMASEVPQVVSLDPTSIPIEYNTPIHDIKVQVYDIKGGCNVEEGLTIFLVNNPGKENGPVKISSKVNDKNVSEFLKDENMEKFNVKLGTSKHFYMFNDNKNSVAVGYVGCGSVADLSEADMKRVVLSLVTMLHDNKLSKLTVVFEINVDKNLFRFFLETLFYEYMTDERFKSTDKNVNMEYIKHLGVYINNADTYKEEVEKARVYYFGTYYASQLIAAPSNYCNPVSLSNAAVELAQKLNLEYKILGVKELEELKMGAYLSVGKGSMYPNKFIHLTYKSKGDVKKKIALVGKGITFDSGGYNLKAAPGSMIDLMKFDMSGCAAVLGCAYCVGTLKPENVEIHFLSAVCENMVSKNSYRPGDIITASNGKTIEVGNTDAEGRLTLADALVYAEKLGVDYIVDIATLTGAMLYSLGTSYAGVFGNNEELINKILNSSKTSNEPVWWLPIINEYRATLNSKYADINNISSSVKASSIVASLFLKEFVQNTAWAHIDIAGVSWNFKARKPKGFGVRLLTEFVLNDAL

## Cc1ccc(NC(=O)c2ccc3ccccc3n2)cc1S(=O)(=O)N(C)C
[1]
  AC50: 35.4 µM (active)

## CCN(CC)S(=O)(=O)c1ccc(S(=O)(=O)N2CCCC(C(=O)NC3CC3)C2)cc1 (centres undefined)
[2]
  AC50: 2.9 µM (active)
[3]
  IC50: 0.444 µM (active)
[4]
  AC50: 9.46 µM (active)
[5]
  AC50: 52 µM (active)

## CCOC(=O)N1CCN(C(=O)c2oc3ccc(S(=O)(=O)N4CCOCC4)cc3c2C)CC1
[6]
  IC50: > 50 µM (not active)

## COc1ccc(NC(=S)NC(=O)c2ccccc2)cn1
[7]
  IC50: > 66 µM (inactive)
[8]
  IC50: > 66 µM (inactive)

## CCOCCn1c(-c2ccc(OC)cc2)nc2ccccc21
[9]
  IC50: > 50 µM (inactive)

## CCOC(=O)c1sc(=S)n(C)c1NC(=O)c1ccc(OC)cc1
[10]
  IC50: 41.1 µM (active)

## CCCN1CCC(N2CCCC(C(=O)O)C2)CC1 (centres undefined)
[6]
  IC50: > 50 µM (not active)

## CCCN1CCN(C(=O)C2CCN(c3nnc(C)c4c(C)n(-c5ccc(C)cc5)nc34)CC2)CC1
[11]
  AC50: 12.3 µM (active)

## c1ccc2c(c1)OCC(c1nnc3sc(-c4ccc5c(c4)OCO5)nn13)O2 (centres undefined)
[10]
  IC50: 52.8 µM (active)

## COc1ccc(/C=C(\C#N)c2n[nH]c(Cn3cncn3)n2)cc1
[9]
  IC50: > 50 µM (inconclusive)

## CC1(C(=O)NCc2ccc(F)c(F)c2)Cc2c(-c3cccc(C(N)=O)c3)ccnc2O1 (centres undefined)
[11]
  AC50: 0.498 µM (active)

## Cc1ccc(-c2nn(-c3ccccc3)cc2/C=C2\SC(=S)N(CC(=O)O)C2=O)cc1
[12]
  IC50: 4.14 µM (active)
[13]
  IC50: 36.5 µM (active)

## CC1=NNC(=O)C1CCC(=O)N/N=C(/C)c1ccc([N+](=O)[O-])cc1 (centres undefined)
[14]
  IC50: 80.6 µM (active)

## NC(=O)N/N=C/C=C/c1ccccc1 [PHENYLETHENYLSEMICARBAZONE]
[6]
  IC50: > 50 µM (not active)

— ChEMBL document CHEMBL1201862, “PubChem BioAssay data set” (2004)
